pKd: −log10 of the molar value. Several values for one entry are separate records, joined by “and”; a condition that tells them apart may be missing. Identical values can stand only once.
Columns and labels:
Test in all cases: Enzyme Activity Assay
Conditions in all cases: pH 7.5; 25 °C
[1] = target: T1, Aminodeoxyfutalosine nucleosidase (Helicobacter pylori (strain ATCC 700392 / 26695), UniProt O24915)
T1 sequence (O24915 whole entry): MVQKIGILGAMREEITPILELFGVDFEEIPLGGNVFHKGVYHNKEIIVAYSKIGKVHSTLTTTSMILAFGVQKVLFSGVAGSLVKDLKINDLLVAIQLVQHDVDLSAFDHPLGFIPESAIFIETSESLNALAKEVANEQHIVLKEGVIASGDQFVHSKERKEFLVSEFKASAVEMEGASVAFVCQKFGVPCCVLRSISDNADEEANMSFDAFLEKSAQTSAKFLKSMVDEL
Source text: (§1) Enzyme activity assay using various bacterial species of 5'-Methylthioadenosine nucleosidases (MTANs) excepted for MTAP, for human MTAP.

[2] = target: T2, 5'-methylthioadenosine/S-adenosylhomocysteine nucleosidase (Neisseria meningitidis (strain alpha14), UniProt C6S634)
T2 sequence (C6S634 whole entry): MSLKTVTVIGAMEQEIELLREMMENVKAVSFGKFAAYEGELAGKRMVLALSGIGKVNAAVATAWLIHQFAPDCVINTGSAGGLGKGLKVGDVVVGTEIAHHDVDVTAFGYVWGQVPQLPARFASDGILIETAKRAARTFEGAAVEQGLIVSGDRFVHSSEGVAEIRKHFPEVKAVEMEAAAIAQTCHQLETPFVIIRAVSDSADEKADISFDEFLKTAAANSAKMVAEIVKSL
Source text: as §1

[3] = target: T3, S-methyl-5'-thioadenosine phosphorylase (Homo sapiens, UniProt Q13126)
T3 sequence (Q13126 whole entry): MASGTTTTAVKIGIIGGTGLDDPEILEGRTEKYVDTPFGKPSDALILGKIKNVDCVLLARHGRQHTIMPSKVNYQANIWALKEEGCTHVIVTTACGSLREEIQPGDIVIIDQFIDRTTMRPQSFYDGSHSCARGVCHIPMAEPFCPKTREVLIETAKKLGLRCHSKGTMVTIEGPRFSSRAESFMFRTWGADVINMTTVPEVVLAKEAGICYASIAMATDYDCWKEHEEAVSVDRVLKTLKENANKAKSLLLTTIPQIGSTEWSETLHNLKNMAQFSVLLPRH
Source text: as §1

[4] = target: 5'-methylthioadenosine/S-adenosylhomocysteine nucleosidase (Escherichia coli (strain K12), UniProt P0AF12)
Source text: as §1

[5] = target: T4, 5'-methylthioadenosine/S-adenosylhomocysteine nucleosidase (Staphylococcus aureus (strain COL), UniProt Q5HFG2)
T4 sequence (Q5HFG2 whole entry): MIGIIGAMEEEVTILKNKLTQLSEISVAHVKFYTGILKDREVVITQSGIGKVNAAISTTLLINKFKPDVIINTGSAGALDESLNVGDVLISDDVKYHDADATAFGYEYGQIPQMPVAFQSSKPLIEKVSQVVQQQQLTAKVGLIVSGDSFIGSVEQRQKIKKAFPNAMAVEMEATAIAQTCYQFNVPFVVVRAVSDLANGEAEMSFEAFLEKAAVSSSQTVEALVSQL
Source text: as §1

[6] = target: 5'-methylthioadenosine/S-adenosylhomocysteine nucleosidase (Klebsiella pneumoniae (strain 342), UniProt B5Y1L0)
Source text: as §1

[7] = target: T5, Adenosylhomocysteine nucleosidase (Streptococcus pneumoniae (strain ATCC BAA-255 / R6), UniProt Q8DQ16)
T5 sequence (Q8DQ16 whole entry): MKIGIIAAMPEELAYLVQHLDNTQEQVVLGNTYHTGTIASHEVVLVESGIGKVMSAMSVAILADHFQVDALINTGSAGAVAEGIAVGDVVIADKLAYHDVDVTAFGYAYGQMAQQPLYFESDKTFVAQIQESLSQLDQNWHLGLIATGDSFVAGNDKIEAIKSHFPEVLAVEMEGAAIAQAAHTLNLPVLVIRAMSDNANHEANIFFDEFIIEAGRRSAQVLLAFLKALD
Source text: as §1

Sequence of 5'-methylthioadenosine/S-adenosylhomocysteine nucleosidase (Klebsiella pneumoniae (strain 342), UniProt B5Y1L0) (B5Y1L0 whole entry): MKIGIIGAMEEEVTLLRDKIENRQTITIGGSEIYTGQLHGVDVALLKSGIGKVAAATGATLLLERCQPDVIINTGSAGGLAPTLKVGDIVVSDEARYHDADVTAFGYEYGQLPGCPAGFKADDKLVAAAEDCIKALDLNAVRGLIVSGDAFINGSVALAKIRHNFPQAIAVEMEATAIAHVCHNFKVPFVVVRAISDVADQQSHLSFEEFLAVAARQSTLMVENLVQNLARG
Sequence of 5'-methylthioadenosine/S-adenosylhomocysteine nucleosidase (Escherichia coli (strain K12), UniProt P0AF12) (P0AF12 whole entry): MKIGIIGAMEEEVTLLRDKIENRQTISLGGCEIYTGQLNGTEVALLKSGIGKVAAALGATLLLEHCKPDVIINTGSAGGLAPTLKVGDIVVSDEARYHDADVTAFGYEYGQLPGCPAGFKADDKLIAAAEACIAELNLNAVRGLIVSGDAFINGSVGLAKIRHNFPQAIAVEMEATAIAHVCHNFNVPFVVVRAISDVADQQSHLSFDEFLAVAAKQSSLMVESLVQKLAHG

SMILES | pKd [1] | pKd [2] | pKd [3] | pKd [4] | pKd [5] | pKd [6] | pKd [7]
CCSCC1NC(c2c[nH]c3c(N)ncnc23)C(O)C1O (stereo unspecified) | 8.47 | 9.92 | 9.58 | 10.92 | 7.92 | 7.89 | 7.40
Nc1ncnc2c(C3NC(CSCc4ccccc4)C(O)C3O)c[nH]c12 (stereo unspecified) | 6.70 | 9.77 | 7.59 | 10.57 | 7.92 | 7.89 | 6.68
Nc1ncnc2c(C3NC(CSc4ccc(Cl)cc4)C(O)C3O)c[nH]c12 (stereo unspecified) | 7.40 | 10.20 | 9.78 | 11.70 | 7.28 | 8.39 | 6.72
Nc1ncnc2c(CN3CC(O)C(CSCc4ccccc4)C3)c[nH]c12 (stereo unspecified) | 6.70 | 10.62 | 9.15 |  | 9.08 | 8.72 | 8.62
CSCC1NC(c2c[nH]c3c(N)ncnc23)C(O)C1O (stereo unspecified) [2-(4-Amino-5H-pyrrolo[3,2-d]pyrimidin-7-yl)-3,4-dihydroxy-5-methylsulfanylmethyl-pyrrolidinium] | 8.92 | 9.44 | 9.00 | 10.11 | 7.11 | 7.35 | 6.00
CCSC[C@H]1CN(Cc2c[nH]c3c(N)ncnc23)C[C@@H]1O [DADMe-ImmA-Et] | 9.29 | 10.34 |  |  | 8.89 | 8.66 | 8.00
CSC[C@H]1CN(Cc2c[nH]c3c(N)ncnc23)C[C@@H]1O [DADMe-ImmA-Me] | 9.24 | 9.85 | 10.07 and 10.47 |  | 8.85 | 9.11 | 7.62
Nc1ncnc2c(CN3CC(O)C(CSc4ccc(Cl)cc4)C3)c[nH]c12 (stereo unspecified) [DADMe-ImmA-p-ClPh] | 9.24 | 10.68 | 11.00 |  | 8.10 | 9.30 | 9.44

Source: BindingDB's records for doi:10.1021/cb700166z (Albert Einstein College of Medicine, 2007)
